Laboratory results reported in patent publication US7718651B2, “Inhibitors of FtsZ and uses thereof” (priority 2002, dated 2010).
Where two headings read alike, the source gives them in different places.

Test system: M. tuberculosis H37Rv
Experiment: microbe, parasite or virus in culture
Type: cell-based
[1] = M. tuberculosis H37Rv, screen concentration 12.5 g/ml [sic], Table 8

Row | Structure (SMILES) | % Inh [1] | other results
1 | CCOC(=O)Nc1cc(NC/C(CN(C)c2ccccc2)=N/O)c([N+](=O)[O-])c(N)n1 [Compound A127] | 30% | –
2 | CCOC(=O)Nc1cc(NC(C)/C(=N/O)c2ccc(O)cc2)c([N+](=O)[O-])c(N)n1 (stereo not shown) [Compound A149] | 14% | –
3 | CCOC(=O)Nc1cc(NC/C(=N/O)c2ccc(Cl)cc2Cl)c([N+](=O)[O-])c(N)n1 [Compound A58] | 89% | –
4 | CCOC(=O)Nc1cc(NCC(=O)COc2ccc(C(=O)OCC)cc2)c([N+](=O)[O-])c(N)n1 [Compound A292] | 0% | –
5 | CCOC(=O)Nc1cc(NCCCCc2ccccc2)c(N)c(N)n1 [Compound A93] | – | % Inh: 60%
6 | CCOC(=O)Nc1cc(N/N=C/c2ccccc2)c2nc[nH]c2n1 [Compound A48] | 92% | –
7 | CCOC(=O)Nc1cc(N(C)N)c([N+](=O)[O-])c(N)n1 [Compound A209] | 0% | –
8 | CCOC(=O)Nc1cc(NCC(O)CN(C)C)c([N+](=O)[O-])c(N)n1 (stereo not shown) [Compound A232] | 0% | –
9 | CCOC(=O)Nc1cc(NC(C)[C@H](O)c2ccccc2)c(N)c(N)n1 (stereo partly shown) [Compound A312] | −19% | –
10 | CCOC(=O)Nc1cc2c(c(N)n1)N=C(c1ccc(F)cc1)CN2 [Compound A60] | 87% | –
11 | C=CCNc1cc(NC(=O)OCC)nc(N)c1[N+](=O)[O-] [Compound A279] | 0% | –
12 | CCOC(=O)Nc1cc(NC(c2ccccc2)c2ccccc2)c2ncc(=O)[nH]c2n1 [Compound A270] | 0% | –
13 | CCOC(=O)Nc1cc(N)c2ncc(-c3ccc(Cl)cc3)nc2n1 [Compound A262] | 0% | –
14 | CCOC(=O)Nc1cc2[nH]c(-c3ccc(Oc4ccccc4)cc3)nc2c(N(CCc2ccccc2)Cc2ccccc2)n1 [Compound A15] | 98% | –
15 | CCOC(=O)Nc1cc(NC(c2ccccc2)c2ccccc2)c2nc[nH]c2n1.Cl [Compound A280] | 0% | –
16 | CCOC(=O)Nc1cc(Cl)c2ncc(-c3ccc(Cl)cc3)nc2n1 [Compound A187] | 1% | –
17 | CCOC(=O)Nc1cc(NC(C)C(O)c2ccc3c(c2)OCO3)c([N+](=O)[O-])c(N)n1 (stereo not shown) [Compound A163] | 8% | –
18 | CCOC(=O)Nc1cc2[nH]c(C)nc2c(N(CCc2ccccc2)Cc2ccccc2)n1 [Compound A69] | 71% | –
19 | CCOC(=O)Nc1cc(Cl)cc(NC(=O)OCC)n1 [Compound A185] | 2% | –
20 | CCOC(=O)Nc1cc(NC/C(=N/O)c2ccc(OC)c(OC)c2OC)c([N+](=O)[O-])c(N)n1 [Compound A212] | 0% | –
21 | CCOC(=O)Nc1cc(NC(C)/C(=N/O)c2ccc(O)cc2)c([N+](=O)[O-])c(N)n1 (stereo not shown) [Compound A186] | 1% | –
22 | CCOC(=O)Nc1cc(NCCC(O)c2ccccc2)c([N+](=O)[O-])c(N)n1 (stereo not shown) [Compound A115] | 41% | –
23 | CCOC(=O)Nc1cc(NC(c2ccccc2)c2ccccc2)c2ncc(-c3ccc(Cl)cc3)nc2n1 [Compound A261] | 0% | –
24 | COC(=O)Nc1cc(NC(C)/C(=N/O)c2ccccc2)c([N+](=O)[O-])c(N)n1 (stereo not shown) [Compound A176] | 4% | –
25 | CCOC(=O)Nc1cc(N[C@H](C)[C@@H](O)c2ccccc2)c(N)c(N)n1 [Compound A310] | −15% | –
26 | CCOC(=O)Nc1cc(Nc2ccc(Cl)cc2)c2ncc(C)nc2n1 [Compound A260] | 0% | –

Row | Structure (SMILES) | % Inh [1] | other results
27 | CCCCC(Nc1cc(NC(=O)OCC)nc(N)c1[N+](=O)[O-])C(C)=O (stereo not shown) [Compound A67] | 81% | –
28 | CCOC(=O)Nc1cc2oc(-c3ccc(Cl)cc3)nc2c(N(CCc2ccccc2)Cc2ccccc2)n1 [Compound A137] | 21% | –
29 | CCOC(=O)Nc1cc(NC(C)/C(=N/O)c2ccccc2)c([N+](=O)[O-])c(N)n1 (stereo not shown) [Compound A172] | 5% | –
30 | CCOC(=O)Nc1cc(N)c([N+](=O)[O-])c(N[C@H](C)C(=O)c2ccccc2)n1 [Compound A112] | 42% | –
31 | CCOC(=O)Nc1cc(NC/C(=N/O)c2ccc(Cl)cc2)c([N+](=O)[O-])c(N)n1 [Compound A239] | 0% | –
32 | CCOC(=O)Nc1cc2c(c(N)n1)N=C(c1ccc(O)cc1)[C@H](C)N2 [Compound A164] | 8% | –
33 | CCOC(=O)Nc1cc(NCC(C)CN(C)c2ccc(OC)cc2)c([N+](=O)[O-])c(N)n1 (stereo not shown) [Compound A233] | 0% | –
34 | CCOC(=O)Nc1cc(N[C@@H](C)C(O)c2ccccc2)c([N+](=O)[O-])cn1 (stereo partly shown) [Compound A309] | −10% | –
35 | CCOC(=O)Nc1cc2c(nc(SCc3ccccc3)n2/N=C/c2ccccc2)c(N)n1 [Compound A132] | 24% | –
36 | CCOC(=O)Nc1cc2[nH]c(-c3ccccc3)nc2c(N)n1 [Compound A125] | 30% | –
37 | CCOC(=O)Nc1cc2c(c(N)n1)N=C(c1ccccc1)CO2 [Compound A224] | 0% | –
38 | CCOC(=O)Nc1cc(NC(c2ccccc2)c2ccccc2)c2nc(-c3cc(OC)c(OC)c(OC)c3)cnc2n1 [Compound A265] | 0% | –
39 | CCOC(=O)Nc1cc(NCCC(=O)c2ccccc2)c([N+](=O)[O-])c(N)n1 [Compound A308] | −8% | –
40 | CCOC(=O)Nc1cc(N)c2nc(C)cnc2n1 [Compound A282] | 0% | –
41 | CCOC(=O)Nc1cc(NCCc2ccc(S(=O)(=O)N(CC)CC)cc2)c2ncc(-c3ccc(Cl)cc3)nc2n1 [Compound A259] | 0% | –
42 | CCOC(=O)Nc1cc2[nH]c(-c3ccc(OC)cc3)nc2c(N(CCc2ccccc2)Cc2ccccc2)n1 [Compound A16] | 98% | –
43 | CCOC(=O)Nc1cc2c(c(N)n1)N=C1c3ccccc3CCC1O2.Cl.Cl (stereo not shown) [Compound A85] | 65% | –
44 | CCCCNC(=O)Oc1ccc(C2=Nc3c(cc(NC(=O)OCC)nc3N)N[C@H]2C)cc1 [Compound A160] | 10% | –
45 | O=C(Nc1cc(Cl)cc(NC(=O)OCc2ccccc2)n1)OCc1ccccc1 [Compound A188] | 1% | –
46 | CCOC(=O)Nc1cc(Nc2ccc(Cl)cc2)c([N+](=O)[O-])c(N)n1 [Compound A256] | 0% | –
47 | CCOC(=O)Nc1cc(Nc2ccccc2)c([N+](=O)[O-])c(N)n1 [Compound A59] | 88% | –
48 | CCOC(=O)Nc1cc(OCC)c2nc(-c3ccccc3)c(-c3ccccc3)nc2n1 [Compound A38] | 95% | –
49 | CCOC(=O)Nc1cc(N)c2nnsc2n1 [Compound A218] | 0% | –
50 | CCOC(=O)Nc1cc2c(c(N)n1)N=C(c1ccccc1)[C@@H](C)N2 [Compound A98] | – | % Inh: 57%
51 | CCOC(=O)Nc1cc(NC(C)C(=O)c2ccccc2)c([N+](=O)[O-])cn1 (stereo not shown) [Compound A314] | −36% | –
52 | CCOC(=O)Nc1cc(NC(C)C(=O)c2ccccc2)c([N+](=O)[O-])c(N)n1 (stereo not shown) [Compound A161] | 9% | –

Row | Structure (SMILES) | % Inh [1] | other results
53 | CCOC(=O)Nc1cc(NCCc2ccc(S(N)(=O)=O)cc2)c2ncc(C)nc2n1 [Compound A251] | 0% | –
54 | CCCCC(O)C(C)Nc1cc(NC(=O)OCC)nc(N)c1N (stereo not shown) [Compound A181] | 3% | –
55 | CCCCC(=O)C(C)Nc1cc(NC(=O)OC)nc(N)c1[N+](=O)[O-] (stereo not shown) [Compound A180] | 3% | –
56 | CCOC(=O)Nc1cc2c(ncn2/N=C/c2ccc(OC)cc2)c(N)n1 [Compound A242] | 0% | –
57 | CCOC(=O)Nc1cc(NC(c2ccccc2)c2ccccc2)c([N+](=O)[O-])c(N)n1 [Compound A264] | 0% | –
58 | CCOC(=O)Nc1cc2[nH]c(CCc3ccccc3)nc2c(N(CCc2ccccc2)Cc2ccccc2)n1 [Compound A19] | 98% | –
59 | CCOC(=O)Nc1cc(Nc2ccc(Cl)cc2)c(N)c(N)n1 [Compound A92] | 61% | –
60 | CCOC(=O)Nc1cc(NCC(=O)CCc2ccccc2)c([N+](=O)[O-])c(N)n1 [Compound A135] | 22% | –
61 | CCOC(=O)Nc1ccccn1 [Compound A207] | 0% | –
62 | CCOC(=O)Nc1cc(NC(C)C(O)c2ccc(O)cc2)c([N+](=O)[O-])c(N)n1 (stereo not shown) [Compound A303] | −2% | –
63 | CCOC(=O)Nc1cc(N[C@H](C)C(=O)c2ccccc2)c([N+](=O)[O-])c(N)n1 [Compound A198] | 0% | –
64 | COC(=O)Nc1cc(Cl)cc(NC(=O)OC)n1 [Compound A201] | 0% | –
65 | CCOC(=O)Nc1cc2c(c(N)n1)N=C(c1ccc(O)cc1)[C@H](C)N2 [Compound A170] | 7% | –
66 | CCOC(=O)Nc1cc(NC/C(=N/O)c2ccc(OC)cc2)c([N+](=O)[O-])c(N)n1 [Compound A182] | 2% | –
67 | CCOC(=O)Nc1cc(N[C@@H](C)C(=O)c2ccc(O)cc2)c([N+](=O)[O-])c(N)n1 [Compound A304] | −2% | –
68 | CCOC(=O)Nc1cc2nc(C)cnc2c(NC(=O)OCC)n1 [Compound A277] | 0% | –
69 | CCOC(=O)Nc1cc(NC(C)C(O)COc2ccccc2)c([N+](=O)[O-])c(N)n1 (stereo not shown) [Compound A155] | 11% | –
70 | CCOC(=O)Nc1nc(NC(=O)OCC)c([N+](=O)[O-])c(NC(C)/C(=N\O)c2ccccc2)c1[N+](=O)[O-] (stereo not shown) [Compound A150] | 14% | –
71 | CCOC(=O)Nc1cc(NCCc2ccccc2)c([N+](=O)[O-])c(N)n1 [Compound A82] | 68% | –
72 | CCOC(=O)Nc1cc2nc(-c3ccccc3)c(-c3ccccc3)nc2c(OCC)n1 [Compound 3491-23, (5-Ethoxy-2,3-diphenyl-pyrido[3,4-b]pyrazin-7-yl)-carbamic acid ethyl ester] | – | inhibition of growth at 12.5 µg/mL (Mycobacterium tuberculosis, M. tuberculosis H37Rv, at 12.5% μg/ml (so in the source), read-out: Primary Screen PI (% inhibition of growth)): 95%; activity against M. tuberculosis H37Rv in the primary screen (in words): demonstrated activity
73 | CCOC(=O)Nc1cc(N)c2nc(O)[nH]c2n1 [Compound A275] | 0% | –
74 | CCOC(=O)Nc1cc2[nH]c(-c3ccc(C)cc3)nc2c(N(CCc2ccccc2)Cc2ccccc2)n1 [Compound A145] | 16% | –
75 | CCOC(=O)Nc1cc2[nH]c(-c3ccccc3F)nc2c(N(CCc2ccccc2)Cc2ccccc2)n1 [Compound A20] | 98% | –
76 | CCOC(=O)Nc1cc2c(c(N)n1)N=C(c1ccc(C)c(C)c1)CN2 [Compound A88] | 64% | –
77 | CCOC(=O)Nc1cc(NC/C(=N/O)c2ccc(C)cc2)c([N+](=O)[O-])c(N)n1 [Compound A210] | 0% | –
78 | CCOC(=O)Nc1cc2c(c(N)n1)N=C(c1ccc([N+](=O)[O-])cc1)CO2 [Compound A225] | 0% | –
